The source of these data is ChEMBL document CHEMBL1201862, “PubChem BioAssay data set” (2004).

Test systems include SF-268; A549; LOX IMVI; OVCAR-4; SK-OV-3; K562; OVCAR-3; T47D; NCI-H23; UACC-257; HT-29; CCRF-CEM; SF-295; Malme-3M; MOLT-4; ACHN; Hs-578T; OVCAR-5; BT-549.
Common to all, as to test: NCI anticancer screen, dose series, 48 h

The structures appear in SMILES notation.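 Five compound concentrations were applied to cells in 96-well plates for 48 hours; endpoints were derived by simple linear interpolation of the resulting dose-response curve. Abbreviation: GI50, concentration required for 50% inhibition of growth.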 Calls of active or inactive are those of the source. Cut-off read from the data, not from the text of the source: active = GI50 up to about 1.1 µM and inactive = higher. Non-standard residues stand in square brackets, D forms with d. Residues, ends and D or L forms follow the SMILES beside them. Where only a bound is given, the exact number is not on record here.

On to `CC(C)OCC(O)COc1ccc2ccc(=O)oc2c1` (stereo not drawn), for which the GI50 with SF-268, in the assay with A549, in the assay on LOX IMVI, in the assay with OVCAR-4, in the assay on SK-OV-3 and in the assay with K562 was > 100 µM (inactive) throughout. For the same compound, the GI50 in the assay with OVCAR-3, in the assay on T47D, with NCI-H23, in the assay with UACC-257, in the assay on HT-29 and in the assay with CCRF-CEM was > 100 µM (inactive) each time. For the same compound, the GI50 with SF-295, in the assay on Malme-3M, in the assay on MOLT-4, with ACHN, with Hs-578T and in the assay with OVCAR-5 was > 100 µM (inactive) in each case.

Consider `CC1=C(N2CC2)C(=O)c2ccccc2C1=O`, for which the GI50 was 0.359 µM (active) in the assay on SF-268; 0.566 µM (active) with A549; 1.22 µM (inactive) in the assay with LOX IMVI; 0.918 µM (active) with OVCAR-4; 2.52 µM (inactive) in the assay on SK-OV-3; 0.783 µM (active) with K562. In addition, the GI50 in the assay on OVCAR-3 is 1.12 µM (inactive); in the assay with T47D it was 13.1 µM (inactive); with UACC-257 it was 0.327 µM (active); with HT-29, 0.394 µM (active); in the assay with CCRF-CEM it was 1.19 µM (inactive); in the assay with SF-295 it was 0.618 µM (active). Also, the GI50 in the assay on Malme-3M is 1.27 µM (inactive); in the assay with MOLT-4, 1.11 µM (active); with ACHN, 0.257 µM (active); in the assay on Hs-578T, 1.36 µM (inactive); with OVCAR-5, 0.402 µM (active).

Take `O=C(NCCN1CCOCC1)c1cn2c(ccc3sc4ccccc4c(=O)c32)n1`: the GI50 with SF-268 is 12.3 µM (inactive); in the assay with A549 it was 4.62 µM (inactive); with LOX IMVI it was 10.3 µM (inactive); with K562 it was 9.86 µM (inactive); in the assay with BT-549, 27.8 µM (inactive); with OVCAR-3, > 100 µM (inactive). The GI50 in the assay with NCI-H23 was 20.7 µM (inactive); with UACC-257, 34.6 µM (inactive); in the assay on HT-29, 6.56 µM (inactive); with CCRF-CEM, > 10 µM (inactive); with SF-295 it was 11 µM (inactive); in the assay with Malme-3M, 22.7 µM (inactive). For the same compound, the GI50 in the assay with MOLT-4 was 3.3 µM (inactive); with ACHN, 5.36 µM (inactive); with Hs-578T, 12.2 µM (inactive); with OVCAR-5 it was 10.7 µM (inactive).

Turning to `CC1(C)CCC[C@]2(C)[C@@H]1CC[C@@]13O[C@@H]1C1=C(CO)C(=O)OC1=C[C@@H]23`, the GI50 in the assay with SF-268 is 15.2 µM (inactive); in the assay with A549, 10.4 µM (inactive); in the assay on OVCAR-4, 19.2 µM (inactive); in the assay with SK-OV-3, 20.6 µM (inactive); in the assay with K562, 21.4 µM (inactive); in the assay with BT-549, 22 µM (inactive). In addition, the GI50 with NCI-H23 is 17.5 µM (inactive); with UACC-257, 18.2 µM (inactive); in the assay with HT-29, 14 µM (inactive); with SF-295 it was 16.9 µM (inactive); with Malme-3M, 1.1 µM (active); in the assay with MOLT-4, 17.3 µM (inactive). In addition, the results for the GI50 with ACHN and in the assay on OVCAR-5 were 29.2 µM (inactive) and 9.71 µM (inactive), respectively.

`O=Cc1ccc2[nH]c(=O)oc2c1`: the GI50 in the assay on SF-268, with LOX IMVI, with SK-OV-3, in the assay on K562, in the assay on BT-549 and in the assay on OVCAR-3 was > 100 µM (inactive) each time. The GI50 is > 100 µM (inactive) in the assay on NCI-H23; > 100 µM (inactive) with UACC-257; > 100 µM (inactive) in the assay with HT-29; 42.3 µM (inactive) in the assay on CCRF-CEM; > 100 µM (inactive) in the assay with SF-295; > 100 µM (inactive) in the assay with Malme-3M. Further, the GI50 was 60.4 µM (inactive) with MOLT-4, > 100 µM (inactive) in the assay with ACHN, > 100 µM (inactive) in the assay on Hs-578T and > 100 µM (inactive) in the assay with OVCAR-5.

Consider `C/C(=N\N=C(/S)SCc1ccccc1)c1ccccn1`, for which the GI50 in the assay on SF-268 was 0.184 µM (active); in the assay with A549, 0.17 µM (active); in the assay with OVCAR-4 it was < 0.01 µM (active); with SK-OV-3 it was < 0.01 µM (active); in the assay on K562, < 0.01 µM (active); in the assay on BT-549, 1.13 µM (inactive). Further, the GI50 in the assay with OVCAR-3 was < 0.01 µM (active); in the assay on NCI-H23, < 0.01 µM (active); with UACC-257, < 0.01 µM (active); in the assay with HT-29, < 0.01 µM (active); with CCRF-CEM it was < 0.01 µM (active); in the assay on SF-295, 0.514 µM (active). Besides, the GI50 in the assay on Malme-3M is 0.665 µM (active); in the assay with MOLT-4, < 0.01 µM (active); in the assay with ACHN, < 0.01 µM (active); in the assay with Hs-578T, 2.62 µM (inactive).

For `CSCC[C@H](NC(=O)[C@@H](N)CC(N)=O)C(=O)N[C@@H](Cc1c[nH]c2ccccc12)C(=O)N[C@@H](CCC(N)=O)C(=O)N[C@@H](CCC(=O)O)C(=O)N[C@H](C(=O)NCC(=O)N[C@@H](CCCCN)C(=O)N[C@H](C)C(=O)O)C(C)C` (H-NMWQEVGK[dA]-OH), the GI50 with SF-268, with A549, in the assay on LOX IMVI, in the assay with OVCAR-4, in the assay on SK-OV-3 and with K562 was > 100 µM (inactive) in each case. In addition, the GI50 in the assay with OVCAR-3, with T47D, in the assay with NCI-H23, in the assay with UACC-257, in the assay with HT-29 and in the assay on CCRF-CEM was > 100 µM (inactive) each time. Moreover, the GI50 in the assay on SF-295, in the assay on Malme-3M, in the assay on MOLT-4, in the assay on ACHN, in the assay with Hs-578T and in the assay with OVCAR-5 was > 100 µM (inactive) throughout.

Take `CC(C)(C)/N=C1\C(=O)C2(C)CCC1C2(C)C` (stereo not drawn): the GI50 in the assay on SF-268, with A549, in the assay on LOX IMVI, in the assay with OVCAR-4, in the assay with SK-OV-3 and in the assay on K562 was > 100 µM (inactive) each time. Moreover, the GI50 in the assay with BT-549, in the assay with OVCAR-3, with T47D, with NCI-H23, in the assay with UACC-257 and in the assay with HT-29 was > 100 µM (inactive) in each case. Also, the GI50 in the assay with SF-295, in the assay on Malme-3M, in the assay on ACHN and in the assay with OVCAR-5 was > 100 µM (inactive) throughout.

Turning to `CC(C)COP(C)(=O)C(N)(C(F)(F)F)C(F)(F)F` (stereo not drawn), the GI50 in the assay on SF-268, with A549, in the assay with LOX IMVI, with OVCAR-4, in the assay on SK-OV-3 and with K562 was > 100 µM (inactive) throughout. The GI50 with OVCAR-3 is > 100 µM (inactive); in the assay on T47D it was > 100 µM (inactive); with NCI-H23, > 100 µM (inactive); in the assay with UACC-257 it was > 100 µM (inactive); in the assay with HT-29 it was > 100 µM (inactive); in the assay on CCRF-CEM, 88.1 µM (inactive). In addition, the GI50 with SF-295, in the assay on Malme-3M, with MOLT-4, in the assay on ACHN, with Hs-578T and in the assay on OVCAR-5 was > 100 µM (inactive) in each case.

`CCN(CC)CCOCCn1c2c(c3ccccc31)CCCC2`: the GI50 is 36.1 µM (inactive) with SF-268; 23.9 µM (inactive) in the assay with A549; 19.5 µM (inactive) in the assay with LOX IMVI; 26 µM (inactive) with OVCAR-4; 27.4 µM (inactive) with SK-OV-3; 13.6 µM (inactive) in the assay with K562. The GI50 is 35.5 µM (inactive) in the assay on OVCAR-3; 20.6 µM (inactive) with T47D; 35.8 µM (inactive) with NCI-H23; 21.9 µM (inactive) in the assay on UACC-257; 23.7 µM (inactive) in the assay on HT-29; 18.8 µM (inactive) in the assay on CCRF-CEM. For the same compound, the GI50 with SF-295 is 38.5 µM (inactive); in the assay with Malme-3M it was 15.6 µM (inactive); with MOLT-4, 15.8 µM (inactive); with ACHN, 19.1 µM (inactive); in the assay on Hs-578T, 20 µM (inactive); with OVCAR-5 it was 23.3 µM (inactive).

Regarding `CCn1c2ccccc2c2ccc(C3C(C(=O)OC)=C(C)NC(C)=C3C(=O)OC)cc21`, the GI50 was 73.8 µM (inactive) with SF-268; 46.6 µM (inactive) in the assay with A549; 35.8 µM (inactive) in the assay on LOX IMVI; 51.5 µM (inactive) in the assay with OVCAR-4; > 100 µM (inactive) with SK-OV-3; 41.7 µM (inactive) with K562. Besides, the GI50 in the assay on BT-549 is 49.3 µM (inactive); with OVCAR-3, 33.3 µM (inactive); with T47D, 63.8 µM (inactive); with NCI-H23, 56 µM (inactive); in the assay on UACC-257, 48.2 µM (inactive); in the assay with HT-29 it was 33.7 µM (inactive). The GI50 in the assay with CCRF-CEM is 30.4 µM (inactive); in the assay with SF-295 it was 31.7 µM (inactive); in the assay on Malme-3M, 20 µM (inactive); in the assay on MOLT-4, 28.2 µM (inactive); in the assay with ACHN, 38.8 µM (inactive); in the assay on OVCAR-5, > 100 µM (inactive).

On to `O=C(CN1CCCCC1)c1ccc2c(c1)Sc1ccccc1O2`, for which the GI50 is 17.5 µM (inactive) with SF-268; 14.2 µM (inactive) in the assay with A549; 10.2 µM (inactive) in the assay on LOX IMVI; 13 µM (inactive) in the assay with OVCAR-4; 15.5 µM (inactive) in the assay with SK-OV-3; 57 µM (inactive) in the assay with K562. The GI50 with OVCAR-3 was 15.3 µM (inactive); in the assay on T47D, 22.8 µM (inactive); with NCI-H23, 13.1 µM (inactive); with UACC-257 it was 18.5 µM (inactive); with HT-29, 10.9 µM (inactive); in the assay on CCRF-CEM, 12.6 µM (inactive). The GI50 in the assay on SF-295 is 15.7 µM (inactive); with Malme-3M, 17.6 µM (inactive); with MOLT-4, 23.1 µM (inactive); in the assay on ACHN it was 14.1 µM (inactive); in the assay with Hs-578T it was 5.18 µM (inactive); in the assay on OVCAR-5, 15 µM (inactive).
